Structures are written as SMILES. Activity calls are given as the source filed them. The rule behind the calls is not given here. A value given as a limit tells only on which side of the number the result lay.

The subject of data set [1] is U-87 MG. Kind of data set: Induction of apoptosis in human U87 cells assessed as necrotic cells at 5 uM incubated for 48 hrs in presence of (2S,4R)-1-((S)-2-(5-azidopentanamido)-3,3-dimethylbutanoyl)-4-hydroxy-N-(4-(4-methylthiazol-5-yl)benzyl)pyrrolidine-2-carboxamide by Annexin V-FLTC/PI staining based flow cytometry (reference value: 0.60 %). Format: functional, U-87MG ATCC. (Flow cytometry measures light scatter and fluorescence of single cells or particles in a stream.)

Data set [2] concerns U-87 MG. Nature of the data set: Antiproliferative activity against human U87 cells incubated for 48 hrs by MTT assay. Type of data set: functional, cell-based, U-87MG ATCC. A general note: Formazan colour is commonly taken as a measure of viable cells.
For data set [3], the system named is U-87 MG. Nature of the data set: Induction of apoptosis in human U87 cells assessed as necrotic cells at 20 uM incubated for 48 hrs in presence of (2S,4R)-1-((S)-2-(5-azidopentanamido)-3,3-dimethylbutanoyl)-4-hydroxy-N-(4-(4-methylthiazol-5-yl)benzyl)pyrrolidine-2-carboxamide by Annexin V-FLTC/PI staining based flow cytometry (reference value: 0.60 %). Format: functional, U-87MG ATCC.

A further data set concerns HEK293. Kind of data set: Cytotoxicity against HEK293 cells incubated for 48 hrs by MTT assay. Type of data set: toxicity, cell-based. Conditions: human, hek293, 48 h.
For data set [4], the system named is U-87 MG. Kind of data set: Induction of apoptosis in human U87 cells assessed as early apoptotic cells at 5 uM incubated for 48 hrs in presence of (2S,4R)-1-((S)-2-(5-azidopentanamido)-3,3-dimethylbutanoyl)-4-hydroxy-N-(4-(4-methylthiazol-5-yl)benzyl)pyrrolidine-2-carboxamide by Annexin V-FLTC/PI staining based flow cytometry (reference value: 8.95 %). Type of data set: functional, U-87MG ATCC.

The target in data set [5] is Serine/threonine-protein kinase B-raf (Homo sapiens) (UniProt P15056). Nature of the data set: Induction of BRAF degradation in human U87 cells at 10 uM incubated for 48 hrs in presence of 4-azido-N-(2-(2,6-dioxopiperidin-3-yl)-1,3-dioxoisoindolin-4-yl)butanamide by Western blot analysis. Format: cell-based. Background: A western blot detects proteins with antibodies after separation by electrophoresis.

Data set [6] has as its system A549. Kind of data set: Antiproliferative activity against human A549 cells incubated for 48 hrs by MTT assay. Type of data set: functional, cell-based. Conditions: A549, 48 h.
For data set [7], the system named is U-87 MG. Nature of the data set: Induction of apoptosis in human U87 cells assessed as early apoptotic cells at 20 uM incubated for 48 hrs in presence of (2S,4R)-1-((S)-2-(5-azidopentanamido)-3,3-dimethylbutanoyl)-4-hydroxy-N-(4-(4-methylthiazol-5-yl)benzyl)pyrrolidine-2-carboxamide by Annexin V-FLTC/PI staining based flow cytometry (reference value: 8.95 %). Format: functional, U-87MG ATCC.

Data set [8] deals with U-87 MG. Kind of data set: Induction of apoptosis in human U87 cells assessed as necrotic cells at 1 uM incubated for 48 hrs in presence of (2S,4R)-1-((S)-2-(5-azidopentanamido)-3,3-dimethylbutanoyl)-4-hydroxy-N-(4-(4-methylthiazol-5-yl)benzyl)pyrrolidine-2-carboxamide by Annexin V-FLTC/PI staining based flow cytometry (reference value: 0.60 %). Format: functional, U-87MG ATCC.

In data set [9] the test system is A549. Nature of the data set: Antiproliferative activity against human A549 cells incubated for 48 hrs in presence of 4-azido-N-(2-(2,6-dioxopiperidin-3-yl)-1,3-dioxoisoindolin-4-yl)butanamide by MTT assay. The following applies: A549, 48 h. Type of data set: functional, cell-based.
The target in data set [10] is Platelet-derived growth factor receptor beta (Homo sapiens) (UniProt P09619). Nature of the data set: Induction of PDGFR-beta degradation in human U87 cells at 10 uM incubated for 48 hrs in presence of 4-azido-N-(2-(2,6-dioxopiperidin-3-yl)-1,3-dioxoisoindolin-4-yl)butanamide by Western blot analysis. Format: cell-based.
For data set [11], the system named is U-87 MG. Nature of the data set: Induction of apoptosis in human U87 cells assessed as late apoptotic cells at 20 uM incubated for 48 hrs in presence of (2S,4R)-1-((S)-2-(5-azidopentanamido)-3,3-dimethylbutanoyl)-4-hydroxy-N-(4-(4-methylthiazol-5-yl)benzyl)pyrrolidine-2-carboxamide by Annexin V-FLTC/PI staining based flow cytometry (reference value: 3.71 %). Type of data set: functional, U-87MG ATCC.

Data set [12] deals with Vascular endothelial growth factor receptor 2 (Homo sapiens) (UniProt P35968). Nature of the data set: Induction of VEGFR2 degradation in human U87 cells at 10 uM incubated for 48 hrs in presence of 4-azido-N-(2-(2,6-dioxopiperidin-3-yl)-1,3-dioxoisoindolin-4-yl)butanamide by Western blot analysis. Format: cell-based.
Data set [13] has as its system U-87 MG. Kind of data set: Induction of apoptosis in human U87 cells assessed as necrotic cells at 10 uM incubated for 48 hrs in presence of (2S,4R)-1-((S)-2-(5-azidopentanamido)-3,3-dimethylbutanoyl)-4-hydroxy-N-(4-(4-methylthiazol-5-yl)benzyl)pyrrolidine-2-carboxamide by Annexin V-FLTC/PI staining based flow cytometry (reference value: 0.60 %). Format: functional, U-87MG ATCC.

Data set [14] deals with U-87 MG. Kind of data set: Induction of apoptosis in human U87 cells assessed as necrotic cells at 5 uM incubated for 48 hrs in presence of 4-(4-(3-(4-chloro-3-(trifluoromethyl)phenyl)ureido)phenoxy)-N-(prop-2-yn-1-yl)picolinamide by Annexin V-FLTC/PI staining based flow cytometry (reference value: 0.60 %). Format: functional, U-87MG ATCC.
In data set [15] the test system is U-87 MG. Kind of data set: Induction of apoptosis in human U87 cells assessed as early apoptotic cells at 10 uM incubated for 48 hrs in presence of 4-(4-(3-(4-chloro-3-(trifluoromethyl)phenyl)ureido)phenoxy)-N-(prop-2-yn-1-yl)picolinamide by Annexin V-FLTC/PI staining based flow cytometry (reference value: 8.95 %). Type of data set: functional, U-87MG ATCC.
Data set [16] relates to U-87 MG. Nature of the data set: Induction of apoptosis in human U87 cells assessed as necrotic cells at 1 uM incubated for 48 hrs in presence of 4-(4-(3-(4-chloro-3-(trifluoromethyl)phenyl)ureido)phenoxy)-N-(prop-2-yn-1-yl)picolinamide by Annexin V-FLTC/PI staining based flow cytometry (reference value: 0.60 %). Type of data set: functional, U-87MG ATCC.
The subject of data set [17] is U-87 MG. Kind of data set: Induction of apoptosis in human U87 cells assessed as late apoptotic cells at 10 uM incubated for 48 hrs in presence of 4-(4-(3-(4-chloro-3-(trifluoromethyl)phenyl)ureido)phenoxy)-N-(prop-2-yn-1-yl)picolinamide by Annexin V-FLTC/PI staining based flow cytometry (reference value: 3.71 %). Type of data set: functional, U-87MG ATCC.
Data set [18] in a line: Stability of compound in PBS by HPLC analysis. Format: physicochemical. Conditions: buffer.
Data set [19] deals with U-87 MG. Kind of data set: Induction of apoptosis in human U87 cells assessed as late apoptotic cells at 0.1 uM incubated for 48 hrs in presence of 4-(4-(3-(4-chloro-3-(trifluoromethyl)phenyl)ureido)phenoxy)-N-(prop-2-yn-1-yl)picolinamide by Annexin V-FLTC/PI staining based flow cytometry (reference value: 3.71 %). Format: functional, U-87MG ATCC.
The target of data set [20] is Platelet-derived growth factor receptor beta (Homo sapiens) (UniProt P09619). Kind of data set: Induction of PDGFR-beta degradation in human U87 cells at 10 uM incubated for 48 hrs in presence of 4-(4-(3-(4-chloro-3-(trifluoromethyl)phenyl)ureido)phenoxy)-N-(prop-2-yn-1-yl)picolinamide by Western blot analysis. Type of data set: cell-based.
In data set [21] the test system is U-87 MG. Kind of data set: Induction of apoptosis in human U87 cells assessed as late apoptotic cells at 20 uM incubated for 48 hrs in presence of 4-(4-(3-(4-chloro-3-(trifluoromethyl)phenyl)ureido)phenoxy)-N-(prop-2-yn-1-yl)picolinamide by Annexin V-FLTC/PI staining based flow cytometry (reference value: 3.71 %). Format: functional, U-87MG ATCC.
In data set [22] the test system is U-87 MG. Nature of the data set: Induction of apoptosis in human U87 cells assessed as viable cells at 20 uM incubated for 48 hrs in presence of 4-(4-(3-(4-chloro-3-(trifluoromethyl)phenyl)ureido)phenoxy)-N-(prop-2-yn-1-yl)picolinamide by Annexin V-FLTC/PI staining based flow cytometry (reference value: 86.74 %). Format: functional, U-87MG ATCC. Conditions: read-out: Activity.

Data set [23] relates to U-87 MG. Nature of the data set: Induction of apoptosis in human U87 cells assessed as viable cells at 10 uM incubated for 48 hrs in presence of 4-(4-(3-(4-chloro-3-(trifluoromethyl)phenyl)ureido)phenoxy)-N-(prop-2-yn-1-yl)picolinamide by Annexin V-FLTC/PI staining based flow cytometry (reference value: 86.74 %). Conditions: read-out: Activity. Format: functional, U-87MG ATCC.

Platelet-derived growth factor receptor beta (Homo sapiens), sequence (P09619 whole entry): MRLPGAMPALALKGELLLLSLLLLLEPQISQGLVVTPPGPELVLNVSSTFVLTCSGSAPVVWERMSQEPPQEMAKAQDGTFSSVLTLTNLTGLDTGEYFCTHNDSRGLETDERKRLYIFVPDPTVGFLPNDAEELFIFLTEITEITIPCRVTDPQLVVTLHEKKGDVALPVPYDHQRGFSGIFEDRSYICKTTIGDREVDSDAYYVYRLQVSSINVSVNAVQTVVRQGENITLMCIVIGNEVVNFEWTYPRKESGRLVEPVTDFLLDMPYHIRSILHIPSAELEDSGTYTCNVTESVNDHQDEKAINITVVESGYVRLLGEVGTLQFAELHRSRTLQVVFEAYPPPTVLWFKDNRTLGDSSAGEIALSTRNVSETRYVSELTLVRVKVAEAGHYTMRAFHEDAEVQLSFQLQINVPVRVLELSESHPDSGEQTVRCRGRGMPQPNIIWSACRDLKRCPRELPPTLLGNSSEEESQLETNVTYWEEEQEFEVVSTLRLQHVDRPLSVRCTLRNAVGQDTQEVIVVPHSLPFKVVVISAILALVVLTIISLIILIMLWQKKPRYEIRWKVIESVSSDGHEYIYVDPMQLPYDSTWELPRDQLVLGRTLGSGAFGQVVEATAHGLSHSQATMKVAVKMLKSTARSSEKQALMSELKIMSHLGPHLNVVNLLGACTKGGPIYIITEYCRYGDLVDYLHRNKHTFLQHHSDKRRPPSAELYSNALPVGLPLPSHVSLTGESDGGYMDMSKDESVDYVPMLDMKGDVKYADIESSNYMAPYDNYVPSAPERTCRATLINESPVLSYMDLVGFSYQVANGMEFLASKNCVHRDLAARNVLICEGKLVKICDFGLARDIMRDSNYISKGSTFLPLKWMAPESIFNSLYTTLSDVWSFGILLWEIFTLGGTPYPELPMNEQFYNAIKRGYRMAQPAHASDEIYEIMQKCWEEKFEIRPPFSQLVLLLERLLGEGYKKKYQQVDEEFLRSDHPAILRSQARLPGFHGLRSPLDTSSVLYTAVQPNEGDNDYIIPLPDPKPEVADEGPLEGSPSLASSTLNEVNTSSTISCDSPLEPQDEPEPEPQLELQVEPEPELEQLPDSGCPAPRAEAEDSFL
Serine/threonine-protein kinase B-raf (Homo sapiens), sequence (P15056 whole entry): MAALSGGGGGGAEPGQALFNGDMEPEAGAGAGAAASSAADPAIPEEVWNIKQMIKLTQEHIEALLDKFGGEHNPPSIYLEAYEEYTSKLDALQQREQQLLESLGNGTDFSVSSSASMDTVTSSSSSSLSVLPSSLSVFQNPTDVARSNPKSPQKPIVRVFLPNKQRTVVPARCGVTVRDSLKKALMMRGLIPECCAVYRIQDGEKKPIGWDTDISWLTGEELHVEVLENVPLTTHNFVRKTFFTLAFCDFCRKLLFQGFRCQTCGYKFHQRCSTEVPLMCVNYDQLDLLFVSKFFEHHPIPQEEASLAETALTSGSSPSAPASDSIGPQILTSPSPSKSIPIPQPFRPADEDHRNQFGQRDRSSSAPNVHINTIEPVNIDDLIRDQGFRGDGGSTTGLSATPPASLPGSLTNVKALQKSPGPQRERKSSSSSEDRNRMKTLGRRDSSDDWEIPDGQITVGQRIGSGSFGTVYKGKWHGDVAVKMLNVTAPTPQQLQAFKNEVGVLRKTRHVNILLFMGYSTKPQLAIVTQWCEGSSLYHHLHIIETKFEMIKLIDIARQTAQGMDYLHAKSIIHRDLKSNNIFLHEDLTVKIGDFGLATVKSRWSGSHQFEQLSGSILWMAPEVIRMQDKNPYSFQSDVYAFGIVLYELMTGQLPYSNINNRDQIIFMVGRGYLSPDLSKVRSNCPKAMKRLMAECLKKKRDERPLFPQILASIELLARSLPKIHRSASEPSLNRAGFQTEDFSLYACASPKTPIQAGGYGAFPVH
Vascular endothelial growth factor receptor 2 (Homo sapiens), sequence (P35968 whole entry): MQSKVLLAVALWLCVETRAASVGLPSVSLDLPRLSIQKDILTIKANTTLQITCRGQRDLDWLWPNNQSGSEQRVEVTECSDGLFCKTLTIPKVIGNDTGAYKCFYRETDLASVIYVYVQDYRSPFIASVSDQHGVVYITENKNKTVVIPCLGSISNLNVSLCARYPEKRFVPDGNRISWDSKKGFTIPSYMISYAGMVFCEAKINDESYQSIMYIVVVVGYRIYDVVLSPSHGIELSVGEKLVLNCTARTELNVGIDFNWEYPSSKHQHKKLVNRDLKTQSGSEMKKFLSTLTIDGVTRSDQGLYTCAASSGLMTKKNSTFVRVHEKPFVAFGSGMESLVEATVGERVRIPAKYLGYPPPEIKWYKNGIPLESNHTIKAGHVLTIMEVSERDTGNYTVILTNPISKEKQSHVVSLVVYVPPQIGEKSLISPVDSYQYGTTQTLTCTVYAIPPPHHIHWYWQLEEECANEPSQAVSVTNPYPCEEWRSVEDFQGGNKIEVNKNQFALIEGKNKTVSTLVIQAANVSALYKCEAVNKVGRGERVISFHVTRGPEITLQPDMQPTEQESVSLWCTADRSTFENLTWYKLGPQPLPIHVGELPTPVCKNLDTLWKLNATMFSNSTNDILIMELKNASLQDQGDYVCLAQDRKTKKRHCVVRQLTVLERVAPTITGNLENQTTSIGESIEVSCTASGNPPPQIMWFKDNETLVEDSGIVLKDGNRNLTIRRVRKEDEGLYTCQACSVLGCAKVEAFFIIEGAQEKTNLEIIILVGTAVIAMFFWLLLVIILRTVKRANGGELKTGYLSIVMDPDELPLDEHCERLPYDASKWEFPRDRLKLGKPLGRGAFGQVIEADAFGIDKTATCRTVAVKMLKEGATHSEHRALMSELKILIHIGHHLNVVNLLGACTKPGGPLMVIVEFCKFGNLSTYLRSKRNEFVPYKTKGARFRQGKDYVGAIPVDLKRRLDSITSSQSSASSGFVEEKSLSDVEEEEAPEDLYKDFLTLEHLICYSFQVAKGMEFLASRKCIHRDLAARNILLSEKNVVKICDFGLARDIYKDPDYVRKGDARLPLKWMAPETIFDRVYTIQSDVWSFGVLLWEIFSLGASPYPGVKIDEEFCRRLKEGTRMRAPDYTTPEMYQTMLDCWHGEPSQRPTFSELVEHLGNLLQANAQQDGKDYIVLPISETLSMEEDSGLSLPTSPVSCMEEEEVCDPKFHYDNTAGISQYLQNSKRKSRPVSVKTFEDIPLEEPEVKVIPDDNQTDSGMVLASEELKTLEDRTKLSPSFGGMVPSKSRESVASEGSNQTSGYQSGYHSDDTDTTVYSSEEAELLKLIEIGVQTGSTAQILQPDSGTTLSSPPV

The term IC50 denotes the concentration at which inhibition is half-maximal. With `C#CCNC(=O)c1cc(Oc2ccc(NC(=O)Nc3ccc(Cl)c(C(F)(F)F)c3)cc2)ccn1`, the Activity is 25.22% with U-87 MG [1]; 6.36% in the data set with U-87 MG [3]; “Non-Toxic” in the data set on HEK293; 0.05% with U-87 MG [4]; 4.73% with U-87 MG [7]; 1.26% in the data set on U-87 MG [8]. The results for the Activity in the data set on U-87 MG [11] and with U-87 MG [13] were 79.04% and 25.6%, respectively. Besides, the IC50 came to 6.67 µM in the data set with U-87 MG [2], 2.81 µM in the data set on A549 [6] and 1.16 µM in the data set with A549 [9]. Also, the outcome in data set [5], in data set [10] and in data set [12] was Active.

Take `[N-]=[N+]=NCCCC(=O)Nc1cccc2c1C(=O)N(C1CCC(=O)NC1=O)C2=O` (configuration not stated): the Activity in the data set with U-87 MG [14] is on record as 25.22%; in the data set with U-87 MG [15] it was 0.08%; with U-87 MG [16] it was 1.26%; in the data set with U-87 MG [17], 72.58%; in the data set on U-87 MG [19], 3.35%; in the data set with HEK293, “Non-Toxic”. For the same compound, in the data set on U-87 MG [21], the Activity was found to be 79.04%. For the same compound, in [18], the Stability result is listed as “Unstable”. Also, the IC50 in the data set on U-87 MG [2] and in the data set on A549 [6] was above 50 µM in each case. Further, the result in data set [20] was Active. For the same compound, in the data set on U-87 MG [22], the viability at 20 µM was determined as 9.88%. Besides, the viability at 10 µM in the data set on U-87 MG [23] was 1.74%.

These data come from ChEMBL document CHEMBL5620355, “Discovery of intracellular self-assembly protein degraders driven by tumor-specific activatable bioorthogonal reaction” (Eur J Med Chem, 2023).
